Experiment [1] deals with broadleaf grass. Description: Spray-chamber efficacy of S-3100 with or without fertilizer on potted broadleaf grass. The experiment is classed as in vivo. Particulars: broadleaf grass 10 inches, S-3100 20 grams/ha, Fertilizer 14 liters/ha, 1% v/v Agridex (combination also 1% v/v Intact). Here is the method:
4 trials were conducted on the efficacy of ethyl [3-[2-chloro-4-fluoro-5-(1-methyl-6-trifluoromethyl-2,4-dioxo-1,2,3,4-tetrahydropyrimidin-3-yl)phenoxy]-2-pyridyloxy]acetate (“S-3100”) with or without a mannitol and/or sorbitol comprising fertilizer. Specifically, 4 pots of broadleaf grass were grown to 10 inches in height. These pots were placed in a spray chamber for treatment. All compositions contained 1% v/v of Agridex®. The composition containing S-3100 and fertilizer contained 1% v/v of Intact™. Treatments and results can be found in Table 2, below.

The subject of experiment [2] is giant foxtail. Description: Spray-chamber efficacy of S-3100 with or without fertilizer on potted giant foxtail. To be noted: giant foxtail 10 inches, S-3100 20 grams/ha, Fertilizer 14 liters/ha, 1% v/v Agridex (combination also 1% v/v Intact). The experiment is classed as in vivo, Setaria faberi. The procedure:
4 trials were conducted on the efficacy of ethyl [3-[2-chloro-4-fluoro-5-(1-methyl-6-trifluoromethyl-2,4-dioxo-1,2,3,4-tetrahydropyrimidin-3-yl)phenoxy]-2-pyridyloxy]acetate (“S-3100”) with or without a mannitol and/or sorbitol comprising fertilizer. Specifically, 4 pots of giant foxtail were grown to 10 inches in height. These pots were placed in a spray chamber for treatment. All compositions contained 1% v/v of Agridex®. The composition containing S-3100 and fertilizer contained 1% v/v of Intact™. Treatments and results can be found in Table 3, below.

Experiment [3] relates to volunteer corn. Nature of the experiment: Spray-chamber efficacy of S-3100 with or without fertilizer on potted volunteer corn. Particulars: volunteer corn 15 inches, S-3100 20 grams/ha, Fertilizer 14 liters/ha, 1% v/v Agridex (combination also 1% v/v Intact). The experiment is classed as in vivo, Zea mays. The procedure:
4 trials were conducted on the efficacy of ethyl [3-[2-chloro-4-fluoro-5-(1-methyl-6-trifluoromethyl-2,4-dioxo-1,2,3,4-tetrahydropyrimidin-3-yl)phenoxy]-2-pyridyloxy]acetate (“S-3100”) with or without a mannitol and/or sorbitol comprising fertilizer. Specifically, 4 pots of volunteer corn were grown to 15 inches in height. These pots were placed in a spray chamber for treatment. All compositions contained 1% v/v of Agridex®. The composition containing S-3100 and fertilizer contained 1% v/v of Intact™. Treatments and results can be found in Table 4, below.

For experiment [4], the system named is barnyard grass. Nature of the experiment: Spray-chamber efficacy of S-3100 with or without fertilizer on potted barnyard grass. The experiment is classed as in vivo, Echinochloa crus-galli. To be noted: barnyard grass 10 inches, S-3100 20 grams/ha, Fertilizer 14 liters/ha, 1% v/v Agridex (combination also 1% v/v Intact). The procedure:
4 trials were conducted on the efficacy of ethyl [3-[2-chloro-4-fluoro-5-(1-methyl-6-trifluoromethyl-2,4-dioxo-1,2,3,4-tetrahydropyrimidin-3-yl)phenoxy]-2-pyridyloxy]acetate (“S-3100”) with or without a mannitol and/or sorbitol comprising fertilizer. Specifically, 4 pots of barnyard grass were grown to 10 inches in height. These pots were placed in a spray chamber for treatment. All compositions contained 1% v/v of Agridex®. The composition containing S-3100 and fertilizer contained 1% v/v of Intact™. Treatments and results can be found in Table 1, below.

From patent publication US20210186020A1, “AGRICULTURAL COMPOSITIONS AND METHODS OF USE THEREOF” (Valent U.S.A. LLC, priority 2019, published 2021) come the findings set out here.

Take `CCOC(=O)COc1ncccc1Oc1cc(-n2c(=O)cc(C(F)(F)F)n(C)c2=O)c(F)cc1Cl` [S-3100, ethyl [3-[2-chloro-4-fluoro-5-(1-methyl-6-trifluoromethyl-2,4-dioxo-1,2,3,4-tetrahydropyrimidin-3-yl)phenoxy]-2-pyridyloxy]acetate]: the “% control, 3 Days After Treatment” value worked out at 75.0% in experiment [1] (3 DAT), 76.7% in experiment [2] (3 DAT), 65.0% in experiment [3] (3 DAT) and 73.3% in experiment [4] (3 DAT). Further, the “% control, 7 Days After Treatment” value was found to be 93.0% in experiment [1] (7 DAT), 95.5% in experiment [2] (7 DAT), 59.2% in experiment [3] (7 DAT) and 85.2% in experiment [4] (7 DAT). The “% control, 14 Days After Treatment” value was found to be 84.2% in experiment [1] (14 DAT), 96.1% in experiment [2] (14 DAT) and 56.7% in experiment [3] (14 DAT). Moreover, the “% control, 13 Days After Treatment” value in experiment [4] (13 DAT) was 84.7%.
